Experimental findings from US20200163938A1, “PHARMACEUTICAL COMPOSITION COMPRISING IRON CHELATOR EXHIBITING ANTITUMOR ACTIVITY, ANTIBACTERIAL ACTIVITY AND/OR ANTIVIRUS ACTIVITY, AND HAVING REDUCED SIDE EFFECTS” (priority 2017, published 2020) are described below.

“And” between values parts separate entries of the source, which are not always exact repeats. Identical values can stand only once. “Also recorded” adds a separate entry of the source. Counter-ions that a name gives are not always drawn. Like-named read-outs stand apart in the source and are kept apart here.

Data set [1] has as its system human breast cancer cell line MCF-7. The data set is described as follows: Antitumor effects, cell viability (XTT method). It is filed as cell-based. The following applies: FIG. 9. The method, then: (§1) The antitumor effects of the chelating agents of test groups 1 to 10 on each of human lung cancer cell line A549, human liver cancer cell line PLC, and human colon adenocarcinoma cell line HCT116 were confirmed. A549 cells or PLC cells were seeded at 3000 cells/well, and HCT116 cells were seeded at 6000 cells/well. After 24 hours, the fetal bovine serum (FBS) concentration was changed from 10% to 1%, each compound of the test groups 1 to 10 was introduced into medium. Cell viability was confirmed after 48 hours by the Trypan blue method, or, cell viability was confirmed after 48 hours by performing medium exchange and then after 24 hours by performing the XTT method. Deferoxamine mesylate (Desferal (Trademark)) was used as a positive control. Results are as depicted in FIGS. 1A, 1B, 2 and 3.
(§2) Moreover, similarly to the above experiment on antitumor effects, the antitumor effects of the chelating agent of test group 6 or 10 on each of human breast cancer cell line MCF-7 and human oral squamous cell carcinoma HSC-2 were confirmed.
On the technique in general: Formazan colour is commonly taken as a measure of viable cells.

Data set [2] deals with human oral squamous cell carcinoma HSC-2. The data set is described as follows: Antitumor effects, cell viability (XTT method). The data set is classed as cell-based. The following applies: FIG. 10. The method, then: as §1, §2
In data set [3] the test system is HSC-2 cells. As to the kind of experiment: Apoptosis induction, TUNEL staining. The data set is classed as cell-based, human. The following applies: 50 μg/mL, 48 hours, FIG. 11A. The procedure:
(§3) Furthermore, the apoptosis-inducing effects of the chelating agents of test groups 6 and 10 on tumors were confirmed. First, 100 μg/mL of the chelating agent of test group 6 or 50 μg/mL of the chelating agent of test group 10 was added to HSC-2 cells in a culture solution. After 48 hours of reaction, TUNEL Assay was carried out. Specifically, apoptosis induction was evaluated by the TUNEL staining method using a MK500 in situ Apoptosis Detection Kit (Takara Bio Inc.).

For data set [4], the system named is HCT116 cells. The data set is described as follows: Apoptosis induction, TUNEL staining. To be noted: 6.5 µg/mL, 48 hours, FIG. 11B. The data set is classed as cell-based, human. The method, then: as §3
Similarly, the apoptosis-inducing effects of the chelating agent of test group 6 or 10 on HCT116 cells were confirmed. 10 μg/mL of the chelating agent of test group 6 was added and 6.5 µg/mL of the chelating agent of test group 10 was added to the cells. After 48 hours of reaction, TUNEL staining was carried out similarly to the above.

In data set [5] the test system is A549 cells. As to the kind of experiment: Apoptosis induction, TUNEL staining. The data set is classed as cell-based, human. To be noted: 50 μg/mL, 48 hours, FIG. 11C. The method, then: as §3
Further, the apoptosis-inducing effects of the chelating agent of test group 6 or 10 on A549 cells were confirmed. 100 μg/mL of the chelating agent of test group 6 was added and 50 μg/mL of the chelating agent of test group 10 was added to the cells. After 48 hours of reaction, TUNEL staining was carried out similarly to the above.

In data set [6] the test system is A549 cells. The data set is described as follows: Western blot of apoptosis-related factors. It is filed as cell-based, human. To be noted: A549 cell lysate; FIG. 12. From the text: (§4) The cell lysate of each type of cells treated with the chelating agents of test groups 6 and 10 was Western-blotted, and then an increase or a decrease in apoptosis-related factors in treated cells was confirmed using the indicated antibodies. […] Concentration-dependent apoptosis induction was also biochemically confirmed.
For orientation: A western blot detects proteins with antibodies after separation by electrophoresis.

Data set [7] has as its system HSC-2 cells. The data set is described as follows: Western blot of apoptosis-related factors. It is filed as cell-based, human. The following applies: HSC-2 cell lysate; FIG. 12.
Description: as §4

In data set [8] the test system is MCF-7 cells. As to the kind of experiment: Western blot of apoptosis-related factors. It is filed as cell-based, human. The following applies: MCF-7 cell lysate; FIG. 12.
Description: as §4

In data set [9] the test system is subcutaneously-transplanted HCT116 cells. It is filed as in vivo, nude mice (BALB/c nu/nu). The method, then: Next, the antitumor effects of the chelating agents of test groups 6 and 10 on HCT116-cell subcutaneous transplantation model mice, into which HCT116 cells had been subcutaneously transplanted, were confirmed. Mice prepared herein were nude mice (BALB/c nu/nu, 6 weeks old: Clea Japan Inc.). HCT116 cells were adjusted at 3×10^6/mouse, and then mixed with Matrigel (BD Biosciences) at 1:1. The thus obtained mixture was administered to mice, thereby preparing subcutaneous tumors. The dosage was 200 mg/kg/day (5 times/week administration). […] Tissue sections of HCT116 cells subcutaneously transplanted into the test group 10 administration group were prepared, and then hematoxylin-eosin (HE) staining, and TUNEL staining were performed by the above-mentioned method.

The format of data set [10] is in vivo. Also on record: NEFA: unit not given here. To be noted: for Body weight: rats. The procedure:
To a negative control group (saline administration; n=6), the same amount of saline was administered. On day 14 after administration, determining life or death, measurement of body weight, physical items (respiration, body temperature, behavior, etc.) were observed. Moreover, blood samples were taken from each group, and the right kidneys and the livers were removed. Results were as depicted in FIG. 5A to 5C and Tables 4 to 9.

Data set [11] concerns P. gingivalis Pg W83. The data set is described as follows: Antibacterial activity, turbidity and ATP assay. It is filed as cell-based, Porphyromonas gingivalis. To be noted: anaerobic culture 37° C., 18 hours, OD595 nm; FIG. 8. The procedure:
A bacterial strain of one of periodontopathic bacteria, gram-negative bacillus, P. gingivalis, used herein was Pg W83. With the use of a liquid medium prepared by adding the chelating agent of each test group to a modified GAM bouillon medium, anaerobic culture (Anaeropack.anaerobic) was performed at 37° C. for 18 hours. Turbidity was found from optical density (OD595 nm). Results were as depicted in FIG. 8.

The test system of data set [12] is human influenza virus PR8 [A/PUERTORICO/8/34 (H1N1)]. As to the kind of experiment: Suppression of viral infection of MDCK cells. It is filed as cell-based. To be noted: 48 hours. The procedure: MDCK cells (canine renal tubule epithelial cells) were infected with a human influenza virus, and then an effect of suppressing the viral infection of MDCK cells was confirmed. Specifically, PR8 [A/PUERTORICO/8/34 (H1N1)] was adjusted at TCID50=2.81×10^6/mL as the influenza virus, the viral liquid and an equivalent amount of the chelating agent of test group 10 (concentration: 100 μg/mL, 250 μg/mL, 500 μg/mL, or 1000 μg/mL) were mixed and then left to stand at room temperature for 30 minutes. The above-prepared viral liquid was added to MDCK cells. After 48 hours, cells were observed, living cells (specifically, non-infected cells) remaining on the bottom of the culture dish were observed under a microscope. Results were as depicted in FIG. 16A.

The conditions of data set [13]: mouse, in vivo, 300 mg/kg.
Description: To each of 6-week-old Jcl: ICR mice divided into a test group 6 administration group (n=3), a test group 9 administration group (n=3), and a test group 10 administration group (n=3), the chelating agent of each test group was administered at a dose of 300 mg/kg body weight via tail vein. To a positive control group (administration; n=4), deferoxamine mesylate was administered at a dose of 300 mg/kg body weight via tail vein. On day 7 after administration, determining life or death, and physical items (respiration, body temperature, behavior, etc.) were observed.
Setting [14] is: rat blood, oral 200 mg/kg, day 14.
Where [15] appears, read: rat blood, oral 1000 mg/kg, day 14.
[16] abbreviates: rat blood, oral 1000 mg/kg, day 14, 1000 mg/kg.

With `Cl.O=C(O)[C@H](Cc1c[nH]cn1)NCc1ccc(O)c(O)c1O` [Test group 10], the “antitumor effects on MCF-7 (cell viability)” value in data set [1] is “exhibit antitumor effects”. The “antitumor effects on HSC-2 (cell viability)” value in [2] was “exhibit antitumor effects”. The “apoptosis-inducing effects (TUNEL staining)” value (“apoptosis-inducing effects” for short) in data set [3] is recorded as “green-stained cells indicating apoptosis were confirmed”. The “apoptosis-inducing effects” value in [4] was “green-stained cells indicating apoptosis were confirmed”. In addition, in [5], the “apoptosis-inducing effects” value was “green-stained cells (FITC positive cells) indicating apoptosis were confirmed”. Further, the “PARP cleaved fragments and caspase-3-cleaved fragments (Western blot)” value in data set [6] is “PARP cleaved fragments and caspase-3-cleaved fragments were confirmed”. For the same molecule, the “PARP cleaved fragments and caspase-3-cleaved fragments (Western blot)” value in [7] was “PARP cleaved fragments and caspase-3-cleaved fragments were confirmed”. The “PARP cleaved fragments and caspase-3-cleaved fragments (Western blot)” value in data set [8] is “PARP cleaved fragments and caspase-3-cleaved fragments were confirmed”. The “in vivo apoptosis induction in tumor tissue sections (TUNEL staining)” value in [9] (HCT116 subcutaneous tumor tissue, 200 mg/kg/day, FIG. 13B) is reported as “FITC-derived green-stained cell images indicating apoptosis induction were confirmed”. In addition, the body weight change result in data set [9] (mouse, in vivo, 200 mg/kg/day) is on record as “no change in body weight was observed”. Besides, the “in vivo antitumor effects” value in [9] (subcutaneously-transplanted HCT116 cells, nude mice, 200 mg/kg/day (5 times/week), FIGS. 13A, 14) is “exhibited antitumor effects”. In data set [10] (setting [14]), the ALP stood at 603 IU/L, the ALT is reported as 33 IU/L, the AST was determined as 61 IU/L and the BUN worked out at 22.5 mg/dL. Moreover, in [10] (setting [14]), the CRE is 0.37 mg/dL, the Ca stood at 11.2 mg/dL, the GLU stood at 278 mg/dL and the K is on record as 6.1 mEQ/L. In data set [10] (setting [14]), this molecule showed an LD of 53 IU/L, an NEFA of 111, a Na of 146 mEQ/L and a T-Bil of 0.06 mg/dL. The molecule also had a TP in data set [10] (setting [14]) of 5.5 g/dL. In data set [10] (setting [15]), this molecule returned an ALT of 25 IU/L and a CRE of 0.36 mg/dL. Also, in [10] (setting [16]), the ALP was 592 IU/L and 618 IU/L; the AST is 56 IU/L and 90 IU/L; the BUN was 24.6 mg/dL and 22.8 mg/dL; the Ca is 10.6 mg/dL and 10.5 mg/dL. Also, in data set [10] (setting [16]), the GLU is 259 mg/dL and 187 mg/dL; the K was 4.8 mEQ/L and 4.9 mEQ/L; the Na was 142 mEQ/L and 143 mEQ/L; the TP is 5.4 g/dL and 5.7 g/dL. In addition, the Body weight in data set [10] (oral 200 mg/kg) is on record as 170.83 g. Moreover, in data set [10] (oral 1000 mg/kg, 1000 mg/kg), the Body weight is 170.73 g and 185.29 g. For the same molecule, the “antimicrobial effects on P. gingivalis (turbidity)” value in data set [11] is listed as “exhibited antimicrobial effects”. In [12] (500 μg/mL), the “effect of suppressing viral infection” value was “observed to have the effect of suppressing viral infection”.
Take `CC(=O)N(O)CCCCCNC(=O)CCC(=O)N(O)CCCCCNC(=O)CCC(=O)N(O)CCCCCN` [deferoxamine mesylate, Deferoxamine mesylate]: the “effect of suppressing viral infection” value in data set [12] (500 μg/mL or 1000 μg/mL, listed as Desferal) is on record as “the effect of suppressing viral infection was not observed; also recorded: unable to inhibit viral infection”. Besides, the life or death result in data set [13] is listed as “died immediately after administration”.
